# Data taken from PubChem BioAssay AID602236 (The Scripps Research Institute Molecular Screening Center, 2012).
# Activity calls are given as the source filed them.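 Rule for the calls: active = IC50 of 10 µM or lower; inactive = IC50 above 10 µM.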
# Tested on: HEK-293 Gal4-VP16 UAS luciferase reporter, luminescence
# Experiment: VP16 transactivation inhibitor potency, dose response, counter-screen for SRC1 inhibitor project, cell-based, luminescence, high throughput, SRC1 series (AID 602236);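 note: inhibitor potency where hits lower luciferase light from Gal4-VP16 transactivation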
row,Compound,IC50
1,CN1CCN(c2cccc3c2C(=O)c2ccccc2C3=O)CC1,23.8 µM (inactive)
2,O=C(Nc1c(-c2ccccc2)[nH][nH]c1=O)c1cccc(C(F)(F)F)c1,> 35.8 µM (inactive)
3,CCOC(=O)CC(=O)CSc1nccc(-c2cccnc2)n1,> 35.9 µM (inactive)
4,Cc1ccc(O)c(Nc2ncnc3ccc([N+](=O)[O-])cc23)c1,10.8 µM (inactive)
5,CCc1ccc(/C=C2\SC(=S)N(CCCC(=O)NCCCN3CCOCC3)C2=O)cc1,12.7 µM (inactive)
6,CC(NC(=O)COC(=O)c1cccs1)c1ccccc1 (stereo unspecified),> 35.9 µM (inactive)
7,CCn1c(Oc2ccc(F)cc2)nc2c1c(=O)n(C)c(=O)n2C,12.4 µM (inactive)
8,COc1ccc(OC)c(/C=C2\NC(=O)NC2=O)c1,10.8 µM (inactive)
9,c1cnc2ccc(-n3ccnc3)cc2c1,9.58 µM
10,CCN(C(=O)c1cccc(S(=O)(=O)N(C)C)c1)C12CC3CC(CC(C3)C1)C2,15.7 µM (inactive)
11,CC1CCN(C(=O)c2scc3c2OCCO3)CC1,16.4 µM (inactive)
12,Nc1ccn(C2OC(CO)C(O)C2O)c(=O)n1 (stereo unspecified),21.7 µM (inactive)
13,S=C(Nc1ccccc1)Nc1ccc(OCc2ccc(Cl)cc2Cl)cc1,6.69 µM
14,COc1ccc2[nH]c(=O)c(CN(CCN3CCCC3)C(=O)Nc3ccccc3Cl)cc2c1,23.8 µM (inactive)
15,CN(Cc1cnc2nc(N)nc(N)c2n1)c1ccc(C(=O)NC(CCC(=O)O)C(=O)O)c2ccccc12 (stereo unspecified),> 35.9 µM (inactive)
16,O=C(N/N=C/c1cc([N+](=O)[O-])ccc1O)c1cccc(N2CCCC2=O)c1,18.3 µM (inactive)
17,Cc1nn(C(C)(C)C)c(C)c1/C=N/OC(=O)Nc1ccc(Cl)c(Cl)c1,13.9 µM (inactive)
18,Cc1cc(=O)[nH]c(Nc2cccc(Br)c2)n1,9.71 µM
19,CC(=O)C1=C(C)NC2=C(C(=O)CC(C)(C)C2)C1C (stereo unspecified),13.1 µM (inactive)

row,Compound,IC50
1,COc1cc(/C=C2\CC(C(C)(C)C)C/C(=C\c3cc(OC)c(OC)c(OC)c3)C2=O)cc(OC)c1OC (stereo unspecified),5.96 µM
2,Cc1ccc(C)c(NC(=O)c2ccccc2NS(=O)(=O)c2cc([N+](=O)[O-])ccc2C)c1,3.98 µM
3,CN(C)c1ccc(Nc2ncnc3ccc(Br)cc23)cc1,3.2 µM
4,CN(C)C(=O)c1ccc(-c2n[nH]c(=O)c3ccccc23)cc1,16.2 µM (inactive)
5,CCN(CC)CCNC(=O)c1ccc(NC(=O)C2CCN(c3ncnc4sc(C)c(C)c34)CC2)cc1,5.54 µM
6,CC(=O)c1cccc(NC(=O)COc2cc3oc(=O)c(CC(C)O)c(C)c3cc2Cl)c1 (stereo unspecified),> 35.9 µM (inactive)
7,c1cc2[nH]snc2c2nc(C3CC3)nc12,3.5 µM
8,O=C1CCC2S/C(=C/Nc3ccc(C(F)(F)F)cc3)C(=O)N12 (stereo unspecified),> 35.9 µM (inactive)
9,O=C(O)c1ccccc1-c1c2cc(I)c(=O)c(I)c-2oc2c(I)c(O)c(I)cc12,> 35.9 µM (inactive)
10,O=C(CCC(=O)Nc1ccc(Br)cc1)N/N=C/c1ccccc1O,4.9 µM
11,Cc1sc2ncnc(N3CCC(C(=O)N(C)CC(=O)Nc4cccc(F)c4)CC3)c2c1C,15 µM (inactive)
12,CCn1c2ccccc2c2cnc(N=CN(C)C)c(C#N)c21,28.9 µM (inactive)
13,O=C(NC(NC(=S)N1CCOCC1)C(Cl)(Cl)Cl)c1ccc(Cl)cc1 (stereo unspecified),15.5 µM (inactive)
14,N#Cc1c(-c2ccccc2)c(C#N)c2nc3ccccc3n2c1N,> 35.9 µM (inactive)
15,Cc1cccc(C)c1-n1nnnc1C(c1cccs1)N1CCC2(CC1)C(=O)NCN2c1ccccc1 (stereo unspecified),14.4 µM (inactive)
16,CCCCC(CC)COCCCN=Cc1c(O)[nH]c(=S)[nH]c1=O (stereo unspecified),10.5 µM (inactive)
17,O=C(CCCOc1ccc(Cl)cc1Cl)N/N=C/c1ccccc1O,4.77 µM
18,CC(C)(C)NC(=O)C1(C)CCC(=O)N1CCCn1ccnc1 (stereo unspecified),12.5 µM (inactive)
19,COc1ccc2c(C#N)c3ccccn3c2c1,> 35.8 µM (inactive)

row,Compound,IC50
1,C=CCc1ccccc1OCC(=O)N/N=C/c1ccc(OC(C)=O)cc1OC(C)=O,22.8 µM (inactive)
2,CC(C)(C)OC(=O)NCC(=O)Oc1cc2oc(=O)cc(-c3ccccc3)c2cc1Cl,21.8 µM (inactive)
3,Cc1c(/C(O)=C2/C(=O)C(=O)N(Cc3cccnc3)C2c2ccccn2)cnn1-c1ccccc1 (stereo unspecified),> 35.9 µM (inactive)
4,NS(=O)(=O)c1ccc(Nc2nc(-c3cccnc3)cs2)cc1,> 35.8 µM (inactive)
5,NNC(=O)c1cc2ccccc2cc1O,18.4 µM (inactive)
6,Nc1ccc(Oc2ccccc2-c2ccccc2)cc1,19 µM (inactive)
7,CCCCC(=O)OCC(=O)C1(O)Cc2c(O)c3c(c(O)c2C(OC2CC(NC(=O)C(F)(F)F)C(O)C(C)O2)C1)C(=O)c1c(OC)cccc1C3=O (stereo unspecified),6.82 µM
8,CCOC(=O)CSc1cc(-c2ccccc2)nc2ncnn12,> 35.9 µM (inactive)
9,COc1ccccc1N(C(=O)CCl)c1cn(C(C)=O)c2ccccc12,9.22 µM
10,COc1ccccc1-c1cc2nc(-c3ccccc3)cc(N3CCN(C(=O)c4ccco4)CC3)n2n1,4.1 µM
11,O=C(N/N=C(\c1ccccc1)c1ccccn1)c1ccccc1Cl,10.8 µM (inactive)
12,OCCN1CCN(C(=S)c2ccc(-c3ccccc3)cc2)CC1,30.7 µM (inactive)
13,O=C(NC(=S)Nc1ccc(N2CCN(C(=O)c3ccccc3)CC2)cc1)c1cccs1,10.5 µM (inactive)
14,CN(Cc1cnc2nc(N)nc(N)c2n1)c1ccc(C(=O)N[C@@H](CCC(=O)O)C(=O)O)cc1,> 35.9 µM (inactive)
15,CCOc1ccccc1-n1c(SCC(=O)Nc2ccccc2C(=O)O)nc2ccccc2c1=O,> 35.9 µM (inactive)
16,COc1cccc(NC(=O)CN(C)CC(=O)Nc2ccc(Cl)cc2[N+](=O)[O-])c1,20.3 µM (inactive)
17,Cc1ccc(N(Cc2cc(=O)[nH]c3ccccc23)C(=O)CCl)c(C)c1,6.66 µM
18,NC(=S)NN=Cc1ccc(OC(=O)COc2cc(Cl)c(Cl)cc2Cl)cn1,> 35.9 µM (inactive)
